{"source": "paper PMC5413848", "about": "“Optimization of intestinal microsomal preparation in the rat: A systematic approach to assess the influence of various methodologies on metabolic activity and scaling factors” (Biopharmaceutics & Drug Disposition, 2017)", "key": {"[1]": {"set-up": "method as in PMID 11587497", "conditions": "cited from earlier work"}, "[2]": {"experiment": "CYP activity: testosterone metabolite formation in rat intestinal microsomes", "assay_type": "in vitro ADME", "conditions": "for Maximal rate of testosterone metabolite formation: 100 μM testosterone, 1 mg/ml", "experimental": "The CYP enzyme activities were determined for the in‐house and commercial intestinal microsomes using the probe substrate testosterone. Testosterone metabolites and the respective rat cyp isoforms responsible for their formation are shown in Supplemental material Table 1 33. […] The reactions were initiated by the addition of testosterone. Samples were taken at 5, 15, 30 and 60 min. […] Following optimization of the bioanalytical methodology to improve reproducibility and sensitivity based on increasing the efficiency of protein precipitation 37, the samples were quenched 1:2 (sample: quench) in ice cold acetonitrile containing internal standard (1 μM 11‐β OH TEST) and stored overnight at −20°C. The following day, the plates were spun at 3000 rpm for 15 min, and 50 μl supernatant was diluted in 200 μl UPH2O. Samples were quantified using a Waters Acquity UPLC system with a PDA coupled to a G2 Q‐ToF MS (Waters, Milford, MA, USA), and a Acquity UPLC BEH C18 column, 130 Å, 1.7 μm, 2.1 mm × 100 mm and Acquity UPLC column with an in‐Line Filter Kit made up of the same phase (Waters). The sample (25 μl) was detected using an electrospray interface in positive mode, and source and desolvation temperatures, and desolvation and cone gas flows were 120°C and 400°C, and 800 l/h and 20 l/h, respectively. The cone voltage was 30 V. The elution times and LLOQ of testosterone and its hydroxy metabolites are shown in Supplemental material Table 2. The quantification of testosterone metabolites listed in Supplemental material Table 1 was made using standard curves (5–5000 pmol/ml) prepared from no cofactor added microsomes and prepared identically to the assay samples."}, "[3]": {"set-up": "method as in PMID 11587497", "conditions": "Wistar rat intestinal microsomes prepared by elution, 30 cm intestine; cited from earlier work"}, "[4]": {"experiment": "Substrate depletion in in-house rat intestinal microsome pools 1 and 2, combined CYP and UGT cofactors", "conditions": "Han-Wistar, rat, microsomes, pH 7.4, CL int,u, in-house combined cofactors, 1 μM compound", "experimental": "(§1) Microsomes prepared previously via the optimized method (preparation method 8) were combined to form pool 1 (n = 9 rats). A second set of three preparations was combined to form pool 2 (n = 9 rats). Intestinal microsomes were also prepared from intestinal tissue flash‐frozen in tubes on arrival in the laboratory and kept at −80°C until thawing on ice on the morning of preparation, (n = 3 occasions of n = 3 samples). In addition, for comparative purposes microsomes were also prepared from scraped intestinal tissues. Microsomes were prepared after cutting along the length of intestine and gently scraping the intestinal epithelial with a glass microscope slide (n = 1 occasion, n = 3 samples). Commercially available pooled intestinal microsomes were also used as a comparator to those produced in‐house. […] The microsomes were stored at −80°C prior to experiments.\nThe microsomes prepared from the final optimized preparation method (method 8) were measured for CYP content on the day of preparation prior to storage. These microsomes (n = 3 samples prepared on n = 3 separate occasions) were subsequently thawed on ice and pooled for pool 1. The pool 1 microsomes were then assayed for testosterone and 4‐NP metabolite formation. Additional intestinal microsomes were created using the identical methodology with the same number of rat intestinal samples (n = 3 samples prepared on n = 3 occasions) and assayed for testosterone and 4‐NP metabolite formation as well as for CYP content on the day of preparation before storage. The microsomes from this second set of preparations were then thawed and pooled to form pool 2.\n(§2) Midazolam and 7‐hydroxycoumarin were both incubated at 1 mg/ml and 0.5 mg/ml. The microsomes were incubated on ice with alamethacin (50 μg/mg) for 15 min. […] The samples were quenched with ice cold acetonitrile (3:1 quench to sample) containing the internal standard (AZ1). The total incubation time was 40 min. Quenched samples were stored overnight at −20°C. The following day, the samples were diluted with 200 μl UPH2O, and spun at 3000 rpm (Sorvall legend RT centrifuge) for 15 min, and 200 μl of supernatant taken for analysis."}, "[5]": {"experiment": "In vitro-in vivo extrapolation of rat intestinal unbound intrinsic clearance (CL int,u,gut)", "assay_type": "in vitro ADME", "source_text": "The CL int,u values were scaled to give CL int,u,gut using scaling factors for the corresponding microsomal pool (Eq. (5)). The use of scalars from the mean of both pools was also investigated, and was also used for scaling of commercial microsome CL int,u data.\n(5) CLint,u,G=CLuint⋅MPPGI⋅Intestine Segment Weight"}, "[6]": {"experiment": "Nonspecific protein binding in rat intestinal microsomes (96-well micro-equilibrium dialysis)", "conditions": "rat intestinal microsomes 1 mg/ml, compound 1 μM", "experimental": "Nonspecific protein binding was determined in microsomes (1 mg/ml) using high throughput 96‐well micro‐equilibrium dialysis methodology (HTDialysis, LLC, Gales Ferry, CT, USA). These experiments used dialysis membrane strips with 12–14 kDa molecular mass cut‐off (HTDialysis). The microsomes were constituted in 0.1 M phosphate buffer (pH 7.4). The final concentrations of the test compounds was 1 μM. Microsomes containing the test compound were aliquoted into donor wells in triplicate, and buffer placed in the acceptor wells. The plate was incubated at 37°C and left to equilibrate on a plate shaker (450 rpm) for 4 h. Samples from both the acceptor and donor sides of the membrane were then transferred to 96‐well plates and quenched in acetonitrile containing internal standard (AZ1). The same sample preparation and LC–MS/MS methodology was used as described for the microsomal incubations. Compound MS transitions and retention times are reported in Supplemental material Table 3. Fuinc was calculated as the ratio of acceptor to donor both normalized for internal standard as described previously 41. Correction for protein binding for depletion experiments undertaken at 0.5 mg/ml were made using Equation (4).\n(4) fumic,2=1/[P]mic,2/Pmic,1×1−fumic,1/fumic,1+1\nwhere mic,1 denotes 1 mg/ml and mic,2 is 0.5 mg/ml."}, "[7]": {"conditions": "previous study, corrected for fu inc of this study; cited from earlier work"}, "[8]": {"experiment": "Substrate depletion in commercial Han Wistar rat intestinal microsomes, combined or individual CYP and UGT cofactors", "conditions": "for microsomal CLint at 1 μM: male, Han Wistar, rat, microsomes, pH 7.4, CL int,u, Commercial Han Wistar pool, 1 mg/ml, 1 μM compound", "experimental": "as §1, §2"}, "[9]": {"conditions": "Pool 1, FT (1 freeze-thaw cycle)"}}, "note": "“And” between values parts separate entries of the source, which are not always exact repeats. Identical values can stand only once."}
{"smiles": "O=[N+]([O-])c1ccc(O)cc1", "note": "[4‐NP, 4‐nitrophenol]", "values": [{"measurement": "4-NP glucuronidation, previously reported", "setting": "[1]", "value": "7 ± 0.81", "unit": "nmol/min/mg"}]}
{"smiles": "C[C@]12CC[C@H]3[C@@H](C[C@@H](O)C4=CC(=O)CC[C@@]43C)[C@@H]1CC[C@@H]2O", "note": "[6β‐OH TEST]", "values": [{"measurement": "Maximal rate of testosterone metabolite formation", "setting": "[2]; Commercial HW, FT", "value": "190 ± 53.5", "unit": "pmol/min/mg"}, {"measurement": "Maximal rate of testosterone metabolite formation", "setting": "[2]; Commercial SD, FT", "value": "167.2 ± 43.7", "unit": "pmol/min/mg"}, {"measurement": "Maximal rate of testosterone metabolite formation", "setting": "[2]; [9]", "value": "85.3 ± 32.5", "unit": "pmol/min/mg"}, {"measurement": "Maximal rate of testosterone metabolite formation", "setting": "[2]; Pool 2, FT", "value": "187.5 pmol/min/mg and 187.5 ± 77.8 pmol/min/mg"}, {"measurement": "Maximal rate of testosterone metabolite formation", "setting": "[2]; Pool 2, Fresh", "value": "113.3 pmol/min/mg and 113.3 ± 30.9 pmol/min/mg"}, {"measurement": "Maximal rate of testosterone metabolite formation", "setting": "[2]; Scraping, FT", "value": "66.1 pmol/min/mg and 66.1 ± 4.8 pmol/min/mg"}, {"measurement": "Fold higher mean metabolite formation in pool 2 (vs pool 1)", "setting": "[2]", "value": 2.2, "unit": "fold"}, {"measurement": "6β-OH TEST formation, previously reported", "setting": "[3]", "value": "289 ± 5", "unit": "pmol/min/mg"}]}
{"smiles": "C[C@]12CC[C@H]3[C@@H](CCC4=CC(=O)CC[C@@]43C)[C@@H]1C[C@@H](O)[C@@H]2O", "note": "[16α‐OH TEST]", "values": [{"measurement": "Fold higher mean metabolite formation in pool 2 (vs pool 1)", "setting": "[2]", "value": 2.5, "unit": "fold"}]}
{"smiles": "C[C@]12CCC(=O)C=C1CC[C@@H]1[C@@H]2CC[C@]2(C)C(=O)CC[C@@H]12", "note": "[Androstenedione]", "values": [{"measurement": "Maximal rate of testosterone metabolite formation", "setting": "[2]; Commercial HW, FT", "value": "314.5 ± 55.3", "unit": "pmol/min/mg"}, {"measurement": "Maximal rate of testosterone metabolite formation", "setting": "[2]; Commercial SD, FT", "value": "371.6 ± 7.2", "unit": "pmol/min/mg"}, {"measurement": "Maximal rate of testosterone metabolite formation", "setting": "[2]; [9]", "value": "560.7 ± 6.6", "unit": "pmol/min/mg"}, {"measurement": "Maximal rate of testosterone metabolite formation", "setting": "[2]; Pool 2, FT", "value": "548.7 ± 188.7", "unit": "pmol/min/mg"}, {"measurement": "Maximal rate of testosterone metabolite formation", "setting": "[2]; Pool 2, Fresh", "value": "429.9 ± 30.9", "unit": "pmol/min/mg"}, {"measurement": "Maximal rate of testosterone metabolite formation", "setting": "[2]; Scraping, FT", "value": "457.0 ± 60.4", "unit": "pmol/min/mg"}]}
{"smiles": "Cc1ncc2n1-c1ccc(Cl)cc1C(c1ccccc1F)=NC2", "note": "[Midazolam]", "values": [{"measurement": "microsomal CLint at 1 μM", "setting": "[4]; Pool 1, pool 1, 1 mg/ml, CYP and UGT cofactors", "value": 22, "unit": "µL/min/mg"}, {"measurement": "microsomal CLint at 1 μM", "setting": "[4]; Pool 2, pool 2, cell marked with footnotes a and b (1 mg/ml and 0.5 mg/ml)", "value": 18.2, "unit": "µL/min/mg"}, {"measurement": "CL int,u,gut, Combined in-house pools", "setting": "[5]; mean of pool 1 and pool 2 CL int,u and scaling factors", "value": 6.12, "unit": "L/h"}, {"measurement": "CL int,u,gut, Pool 1 Mean", "setting": "[5]; pool 1, pool specific scaling factors, threshold 0.01 l/h", "value": 4.13, "unit": "L/h"}, {"measurement": "CL int,u,gut, Pool 2 Mean", "setting": "[5]; pool 2, pool specific scaling factors, threshold 0.01 l/h", "value": 7.36, "unit": "L/h"}, {"measurement": "fuinc", "setting": "[6]", "value": 0.72}, {"measurement": "CL int,u in commercially available Sprague-Dawley microsomes", "setting": "[7]", "value": 8.3, "unit": "µL/min/mg"}, {"measurement": "Main route of elimination (CYP vs UGT cofactors)", "setting": "[8]; commercial Han Wistar microsomes, individual cofactors", "value": "CYP mediated metabolism"}, {"measurement": "microsomal CLint at 1 μM", "setting": "[8]; CYP cofactors, CYP cofactors only", "value": 18.2, "unit": "µL/min/mg"}, {"measurement": "microsomal CLint at 1 μM", "setting": "[8]; Combined cofactors, combined CYP and UGT cofactors", "value": 12.3, "unit": "µL/min/mg"}, {"measurement": "microsomal CLint at 1 μM", "setting": "[8]; UGT cofactors, UGT cofactors only", "value": 2.8, "unit": "µL/min/mg"}]}
